According to patent US7396655B2, “Method for enhancing activity of luciferase with fluorescence activity” (Chisso Corporation, priority 2005, dated 2008):
Entries after “also recorded” stand apart in the source; their conditions may differ. Like-named read-outs stand apart in the source and are kept apart here.

Legend:
[1] = molecular target: T1, Renilla reniformis luciferase (Renilla reniformis, UniProt P27652); assay: Control experiment: Renilla reniformis luciferase luminescence with imidazole; type: biochemical; conditions: increasing concentrations of imidazole
T1 construct: histidine tag (N); made in house; host or cells: E. coli Top10
T1 sequence (P27652 1-311): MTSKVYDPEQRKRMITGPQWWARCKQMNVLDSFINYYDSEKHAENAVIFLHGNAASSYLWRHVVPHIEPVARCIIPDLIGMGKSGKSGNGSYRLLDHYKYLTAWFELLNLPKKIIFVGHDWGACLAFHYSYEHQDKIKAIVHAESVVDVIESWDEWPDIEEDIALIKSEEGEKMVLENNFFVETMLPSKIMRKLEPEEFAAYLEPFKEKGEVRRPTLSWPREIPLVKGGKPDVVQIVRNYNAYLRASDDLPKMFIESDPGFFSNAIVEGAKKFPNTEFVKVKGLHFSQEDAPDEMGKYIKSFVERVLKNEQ
Method: Renilla reniformis luciferase, a monomeric luciferase (36 kDa) derived from Renilla reniformis, catalyzes oxidation of the substrate coelenterazine to trigger light emission.
50 mM Tris-HCl buffer (200 μl), pH 7.6, was pre-warmed at 25° C., to which the substrate coelenterazine (1 μg/μl) dissolved in ethanol was added. A light-emitting reaction was triggered by adding Renilla reniformis luciferase (1.2 μg). […] The measured values were represented as the maximum intensity (Imax) of luminescence activity.
As a control experiment, the same experiment was conducted using Renilla reniformis luciferase, which contains coelenterazine as luminescent substrate. […] That is, it was shown that the enhancing effect on luminescence activity by the addition of imidazole is specific for BFP-aq.

[2] = molecular target: T2, BFP-aq, luciferase with fluorescence activity derived from aequorin (recombinant apoaequorin, SEQ ID NO: 1 with N-terminal Val replaced by Ala-Asn-Ser); complex (Aequorea victoria, UniProt P02592); assay: Optimal imidazole concentration for enhancing BFP-aq luminescence (FIG. 5); type: biochemical; conditions: pH 8.0, 25° C., coelenterazine substrate; compared with no imidazole
T2 construct: The recombinant apoaequorins encoded by piP-HE is composed of 191 amino acids, whose N-terminus starts from Ala-Asn-Ser-; made in house; host or cells: E. coli strain WA802 (expression vector piP-HE)
T2 sequence (P02592 with tags, fused parts or gaps): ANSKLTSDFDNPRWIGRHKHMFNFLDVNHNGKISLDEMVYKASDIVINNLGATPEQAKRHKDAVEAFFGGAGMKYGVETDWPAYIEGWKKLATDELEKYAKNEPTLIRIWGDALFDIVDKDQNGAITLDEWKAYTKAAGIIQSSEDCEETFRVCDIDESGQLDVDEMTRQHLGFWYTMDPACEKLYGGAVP
Method: 50 mM Tris-HCl (pH 8.0) containing imidazole at various concentrations (0. 1, 0.3, 1, 3, 10, 30, 60, 100, 150, 200, 250, 300, 400, 500, 600, 700, 800, 900, and 1000 mM) was prepared and pre-warmed at 25° C. The substrate coelenterazine (1 μg) was added to each imidazole-containing solution (200 μl). […] Assuming that the maximum intensity activity (Imax) of BFP-aq luminescence activity in 50 mM Tris-HCl (pH 8.0) is 100%, the relative luminescence activity values are shown in FIG. 5.

[3] = molecular target: T2, BFP-aq, luciferase with fluorescence activity derived from aequorin (recombinant apoaequorin, SEQ ID NO: 1 with N-terminal Val replaced by Ala-Asn-Ser); complex; assay: Light-emitting reaction rate of BFP-aq, Lineweaver-Burk plot (Table 6); type: biochemical; conditions: with or without 150 mM imidazole
[4] = molecular target: T3, Renilla reniformis luciferase (recombinant, N-terminal histidine tag) (Renilla reniformis, UniProt P27652); assay: Effect of imidazole on Renilla reniformis luciferase luminescence (control, FIG. 5); type: biochemical; conditions: increasing concentrations of imidazole (0.1 to 1000 mM), pH 8.0, coelenterazine substrate
T3 sequence (P27652 1-311): T1 sequence (P27652 1-311)
Method: (§1) 50 mM Tris-HCl (pH 8.0) containing imidazole at various concentrations (0. 1, 0.3, 1, 3, 10, 30, 60, 100, 150, 200, 250, 300, 400, 500, 600, 700, 800, 900, and 1000 mM) was prepared and pre-warmed at 25° C. The substrate coelenterazine (1 μg) was added to each imidazole-containing solution (200 μl).
(§2) As a control experiment, the same experiment was conducted using Renilla reniformis luciferase, which contains coelenterazine as luminescent substrate.

BFP-aq [5] = molecular target: T4, BFP-aq (Aequorea victoria, UniProt P07164); conditions: with vs without 150 mM imidazole
Method: Then, luminescence activity was measured with the luminometer Luminescencer-PSN AB2200 (manufactured by Atto Co., Ltd.) for 60 seconds. Using the luminescence activity for the first 3 sec of the light-emitting reaction as the initial reaction rate, Km values were determined by the Lineweaver-Burk plot method.

BFP-aq [6] = molecular target: T4, BFP-aq; assay: biochemical; type: biochemical; parameters: The recombinant apoaequorins encoded by piP-HE is composed of 191 amino acids, whose N-terminus starts from Ala-Asn-Ser-; made in house; host or cells: E. coli strain WA802
Method: Solutions of 50 mM Tris-HCl (pH 8.0), each containing various commercial organic compounds shown in Table 3, were prepared and pre-warmed at 25° C. The substrate coelenterazine (1 μg) was added to the solutions (200 μl) containing each of these compounds.

BFP-aq [7] = molecular target: T4, BFP-aq; type: biochemical; parameters: The recombinant apoaequorins encoded by piP-HE is composed of 191 amino acids, whose N-terminus starts from Ala-Asn-Ser-; made in house; host or cells: E. coli strain WA802; conditions: pH 8.0
Method: as §1, §2

[8] = molecular target: T2, BFP-aq, luciferase with fluorescence activity derived from aequorin (recombinant apoaequorin, SEQ ID NO: 1 with N-terminal Val replaced by Ala-Asn-Ser); complex; assay: Luminescence of BFP-aq with coelenterazine and analogs, with/without imidazole (Table 5); type: biochemical; conditions: without imidazole; pH 8.0; coelenterazine without imidazole = 100%
Method: 200 μl of this solution was placed in five vessels, to each of which 1 μg of the substrate coelenterazine (CTZ) and its four analogs: h-CTZ, cp-CTZ, hcp-CTZ, f-CTZ were added. […] Assuming that the maximum intensity activity (Imax) and initial velocity of BFP-aq luminescence activity in 50 mM Tris-HCl (pH 8.0) was 100%, the effect of the addition of imidazole on luminescence activity was examined.

[9] = pH 8, read-out: Luminescence activity (%) Imax
[10] = pH 8, read-out: Luminescence activity (%) Initial velocity

c1c[nH]cn1 [Imidazole]
Effect on luminescence activity of Renilla reniformis luciferase [1]: remarkably inhibited
Luminescence activity of BFP-aq with imidazole, in words [2]: enhanced at 30 to 250 mM imidazole; also recorded: more than two-fold of the luminescence activity
Km change with imidazole, in words [3]: no marked changes were found in the Km values
Vmax change with imidazole, in words [3]: only Vmax was doubled in the system with imidazole
Luminescence activity of Renilla reniformis luciferase with imidazole, in words [4]: remarkably inhibited with increasing concentrations of imidazole
Change of Km values (BFP-aq [5]): no marked changes
Change of Vmax (BFP-aq [5]): doubled
activity at 30000 µM (BFP-aq [6]; [9]): 148%
activity at 150000 µM (BFP-aq [6]; [9]): 199%
activity at 30000 µM (BFP-aq [6]; [10]): 153%
activity at 150000 µM (BFP-aq [6]; [10]): 205%
Enhancement of BFP-aq luminescence activity (Imax), in words (BFP-aq [6]; pH 8.0, Table 4 comparison): marked luminescence activity (Imax) occurs only when 150 mM imidazole was added
Luminescence activity compared with the system without imidazole (BFP-aq [7]; 150 mM imidazole): more than two-fold
Effect on luminescence activity of BFP-aq (BFP-aq [7]; 30 to 250 mM imidazole): enhanced

O=c1c(Cc2ccc(O)cc2)nc2c(CC3CCCC3)[nH]c(-c3ccc(O)cc3)cn1-2 [cp-Coelenterazine, cp-coelenterazine]
Relative luminescence activity, Imax [8]: 54%
